# Laboratory results as given in patent publication US8017612B2, “Piperazine compound and use thereof as a HCV polymerase inhibitor” (priority 2006, dated 2011).
# Structures can show the parent of a compound that is named as a salt.
# Key:
# [1] = molecular target: T1, HCV polymerase (NS5B) type 1b (Hepatitis C virus genotype 1b, UniProt P26663); assay: Assay of enzyme (HCV polymerase) inhibitory activity, type 1b enzyme; assay type: biochemical, HCV BK strain (type 1b)
# T1 construct: a region encoding NS5B (J Virol 1991 March, 65(3), 1105-13, 544 amino acids after deletion of 47 amino acids on the C-terminal); 6xHis (C); made in house; host or cells: Escherichia coli
# Outline: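 IC50 derived from [3H]UTP incorporation into TCA-insoluble RNA, compared with and without test compound. Reaction (25 °C, 60 min, Tris pH 7.5, 5 mM MgCl2): E. coli-expressed 1b NS5B Δ47 with His tag at 0.5 μg/ml, 5 μg/ml run-off substrate RNA, ATP/GTP/CTP 50 μM, UTP 2 μM.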
# [2] = molecular target: T2, HCV polymerase (NS5B) type 1a (Hepatitis C virus genotype 1a, UniProt P26664); assay: Assay of enzyme (HCV polymerase) inhibitory activity, type 1a enzyme; assay type: biochemical, HCV type 1a (cloned from the blood of patients)
# T2 construct: made in house; host or cells: Escherichia coli (by the 'similar method' of the 1b enzyme)
# Outline: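 Reactions ran 60 min at 25° C in 20 mM Tris-HCl pH 7.5, 5 mM MgCl2, 50 mM NaCl, holding genotype 1a NS5B (1.5 μg/ml, Δ47 C-terminus, 6His), substrate RNA 5 μg/ml, UTP 2 μM with tritiated UTP and other NTPs 50 μM. IC50 derived from incorporated radiolabel in filter-trapped RNA relative to uninhibited reaction.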
# [3] = HCV polymerase inhibitory activity (IC50), 1b, type 1b enzyme 0.5 μg/ml, 25° C., 60 min
# [4] = HCV polymerase inhibitory activity (IC50), 1a, type 1a enzyme 1.5 μg/ml, 25° C., 60 min
# [5] = HCV polymerase inhibitory activity IC50, 1b, type 1b enzyme
# [6] = HCV polymerase inhibitory activity IC50, 1a, type 1a enzyme
Structure (SMILES),"IC50 [1, 3] [nM]","IC50 [2, 4] [nM]","IC50 [1, 5] [nM]","IC50 [2, 6] [nM]"
"CCC(F)(F)c1ccc(CNC(=O)[C@H]2CN(C(=O)Nc3ccnc(C(N)=O)c3)CCN2S(=O)(=O)c2ccc(OC(F)(F)F)cc2)cc1 [Example 503, (R)-4-(4-trifluoromethoxy-benzenesulfonyl)-piperazine-1,3-dicarboxylic acid 1-[(2-carbamoyl-pyridin-4-yl)-amide] 3-[4-(1,1-difluoro-propyl)-benzylamide]]",< 100,100 to 1000,–,–
"O=C(O)c1cnc(N2CCN(S(=O)(=O)c3ccc(OC(F)(F)F)cc3)[C@@H](C(=O)NCc3ccc(OC(F)(F)F)cc3)C2)cn1 [Example 386, (R)-4-(4-trifluoromethoxy-benzenesulfonyl)-3-(4-trifluoromethoxy-benzylcarbamoyl)-3,4,5,6-tetrahydro-2H-[1,2′]bipyrazinyl-5′-carboxylic acid]",< 100,< 100,–,–
"O=C(NCc1ccc(C2CC2)cc1)[C@H]1CN(c2nc3ncncc3s2)CCN1S(=O)(=O)c1ccc(OC(F)(F)F)cc1 [Example 976, (R)-4-thiazolo[4,5-d]pyrimidin-2-yl-1-(4-trifluoromethoxy-benzenesulfonyl)-piperazine-2-carboxylic acid 4-cyclopropyl-benzylamide]",–,–,< 100,< 100
"CCCc1ccc(CNC(=O)[C@H]2CN(c3nc4c(C(=O)O)cncc4s3)CCN2S(=O)(=O)c2ccc(OC(F)(F)F)cc2)cc1 [Example 1084, 2-[(R)-3-(4-propyl-benzylcarbamoyl)-4-(4-trifluoromethoxy-benzenesulfonyl)-piperazin-1-yl]-thiazolo[5,4-c]pyridine-7-carboxylic acid]",–,–,< 100,< 100
"O=C(O)c1n[nH]c(=O)c2sc(N3CCN(S(=O)(=O)c4ccc(OC(F)(F)F)cc4)[C@@H](C(=O)NCc4ccc(OC(F)(F)F)cc4)C3)nc12 [Example 874, 7-oxo-2-[(R)-4-(4-trifluoromethoxy-benzenesulfonyl)-3-(4-trifluoromethoxy-benzylcarbamoyl)-piperazin-1-yl]-6,7-dihydro-thiazolo[4,5-d]pyridazine-4-carboxylic acid]",–,–,< 100,< 100
"Nc1nc(C(F)(F)F)nc2nc(N3CCN(S(=O)(=O)c4ccc(OC(F)(F)F)cc4)[C@@H](C(=O)NCc4ccc(OC(F)(F)F)cc4)C3)sc12 [Example 1021, (R)-4-(7-amino-5-trifluoromethyl-thiazolo[4,5-d]pyrimidin-2-yl)-1-(4-trifluoromethoxy-benzenesulfonyl)-piperazine-2-carboxylic acid 4-trifluoromethoxy-benzylamide]",–,–,< 100,< 100
"CC(C)c1ccc(S(=O)(=O)N2CCN(C(=O)COc3ccccc3)CC2C(=O)NCc2ccc(C(F)(F)F)cc2)cc1 (stereo not shown) [Example 125, 1-(4-isopropyl-benzenesulfonyl)-4-(2-phenoxy-acetyl)-piperazine-2-carboxylic acid 4-trifluoromethyl-benzylamide]",> 1000,> 1000,–,–
"CCNC(=O)N1CCN(S(=O)(=O)c2ccc(C(F)(F)F)cc2)[C@@H](C(=O)NCc2ccc(C(C)C)cc2)C1 [Example 177, (R)-4-(4-trifluoromethyl-benzenesulfonyl)-piperazine-1,3-dicarboxylic acid 1-ethylamide 3-(4-isopropyl-benzylamide)]",100 to 1000,100 to 1000,–,–
"Cc1cc(C2CC2)ccc1CNC(=O)[C@H]1CN(c2nc(C)c(C(=O)O)s2)CCN1S(=O)(=O)c1ccc(OC(F)(F)F)cc1 [Example 356, 2-[(R)-3-(4-cyclopropyl-2-methyl-benzylcarbamoyl)-4-(4-trifluoromethoxy-benzenesulfonyl)-piperazin-1-yl]-4-methyl-thiazole-5-carboxylic acid]",< 100,< 100,–,–
"CN(C)c1ccc(CNC(=O)C2CN(C(=O)CCN)CCN2S(=O)(=O)c2ccc(I)cc2)cc1 (stereo not shown) [Example 89, 4-(3-amino-propionyl)-1-(4-iodo-benzenesulfonyl)-piperazine-2-carboxylic acid 4-dimethylamino-benzylamide hydrochloride]",> 1000,> 1000,–,–
"O=C(NCc1ccc(OC(F)(F)F)cc1)[C@H]1CN(c2ccc3nccnc3n2)CCN1S(=O)(=O)c1ccc(OC(F)(F)F)cc1 [Example 762, (R)-4-pyrido[2,3-b]pyrazin-6-yl-1-(4-trifluoromethoxy-benzenesulfonyl)-piperazine-2-carboxylic acid 4-trifluoromethoxy-benzylamide]",–,–,< 100,< 100
"CC(=O)N1CCN(S(=O)(=O)c2ccc(CC(C)C)cc2)[C@@H](C(=O)NCc2ccc(C(C)C)cc2)C1 [Example 194, (R)-4-acetyl-1-(4-isobutyl-benzenesulfonyl)-piperazine-2-carboxylic acid 4-isopropyl-benzylamide]",< 100,< 100,–,–
"CC(C)c1ccc(S(=O)(=O)N2CCN(C3=NCCS3)CC2C(=O)NCc2ccc(C(F)(F)F)cc2)cc1 (stereo not shown) [Example 112, 4-(4,5-dihydro-thiazol-2-yl)-1-(4-isopropyl-benzenesulfonyl)-piperazine-2-carboxylic acid 4-trifluoromethyl-benzylamide]",> 1000,> 1000,–,–
"CCC(F)(F)c1ccc(CNC(=O)[C@H]2CN(c3cnc4cnccc4n3)CCN2S(=O)(=O)c2ccc(N3CCCC3=O)cc2)cc1 [Example 751, (R)-1-[4-(2-oxo-pyrrolidin-1-yl)-benzenesulfonyl]-4-pyrido[3,4-b]pyrazin-2-yl-piperazine-2-carboxylic acid 4-(1,1-difluoro-propyl)-benzylamide]",–,–,< 100,< 100
"CCC(F)(F)c1ccc(CNC(=O)[C@H]2CN(c3nc4ncncc4s3)CCN2S(=O)(=O)c2ccc(OC(F)(F)F)cc2)cc1 [Example 894, (R)-4-thiazolo[4,5-d]pyrimidin-2-yl-1-(4-trifluoromethoxy-benzenesulfonyl)-piperazine-2-carboxylic acid 4-(1,1-difluoro-propyl)-benzylamide]",–,–,< 100,< 100
"CCC(F)(F)c1ccc(CNC(=O)[C@H]2CN(c3cnc4cncc(C(=O)O)c4n3)CCN2S(=O)(=O)c2ccc(OC(F)(F)F)cc2)cc1 [Example 836, 2-[(R)-3-[4-(1,1-difluoro-propyl)-benzylcarbamoyl]-4-(4-trifluoromethoxy-benzenesulfonyl)-piperazin-1-yl]-pyrido[3,4-b]pyrazine-8-carboxylic acid]",–,–,< 100,< 100
"CC(C)c1ccc(S(=O)(=O)N2CCN(C)CC2C(=O)NCc2ccc(C(F)(F)F)cc2)cc1 (stereo not shown) [Example 16, 1-(4-isopropyl-benzenesulfonyl)-4-methyl-piperazine-2-carboxylic acid 4-trifluoromethyl-benzylamide]",> 1000,> 1000,–,–
"CC(C)(C)c1ccc(CNC(=O)[C@H]2CN(c3cnc(CN4CCCC4)cn3)CCN2S(=O)(=O)c2ccc(OC(F)(F)F)cc2)cc1 [Example 558, (R)-5′-pyrrolidin-1-ylmethyl-4-(4-trifluoromethoxy-benzenesulfonyl)-3,4,5,6-tetrahydro-2H-[1,2′]bipyrazinyl-3-carboxylic acid 4-tert-butyl-benzylamide]",< 100,100 to 1000,–,–
"O=C(NCc1ccc(OC(F)F)cc1F)[C@H]1CN(c2nc3nc(C4CC4)ncc3s2)CCN1S(=O)(=O)c1ccc(C(F)(F)F)cc1 [Example 1040, (R)-4-(5-cyclopropyl-thiazolo[4,5-d]pyrimidin-2-yl)-1-(4-trifluoromethyl-benzenesulfonyl)-piperazine-2-carboxylic acid 4-difluoromethoxy-2-fluoro-benzylamide]",–,–,< 100,< 100
"CCOc1ccc(CNC(=O)[C@H]2CN(c3nc(C)c(C(=O)O)s3)CCN2S(=O)(=O)c2ccc(OC(F)(F)F)cc2)cc1 [Example 442, 2-[(R)-3-(4-ethoxy-benzylcarbamoyl)-4-(4-trifluoromethoxy-benzenesulfonyl)-piperazin-1-yl]-4-methyl-thiazole-5-carboxylic acid]",< 100,100 to 1000,–,–
"CNC(=O)c1nncc2sc(N3CCN(S(=O)(=O)c4ccc(OC(F)(F)F)cc4)[C@@H](C(=O)NCc4ccc(OC(F)(F)F)cc4)C3)nc12 [Example 916, 2-[(R)-4-(4-trifluoromethoxy-benzenesulfonyl)-3-(4-trifluoromethoxy-benzylcarbamoyl)-piperazin-1-yl]-thiazolo[4,5-d]pyridazine-4-carboxylic acid methylamide]",–,–,< 100,< 100
"O=C(NCc1ccc(OC(F)(F)F)cc1)[C@H]1CN(c2nc3cnnc(Cl)c3s2)CCN1S(=O)(=O)c1ccc(OC(F)(F)F)cc1 [Example 869, (R)-4-(7-chloro-thiazolo[4,5-d]pyridazin-2-yl)-1-(4-trifluoromethoxy-benzenesulfonyl)-piperazine-2-carboxylic acid 4-trifluoromethoxy-benzylamide]",–,–,< 100,< 100
"CCCOc1ccc(S(=O)(=O)N2CCN(C(C)=O)C[C@@H]2C(=O)NCc2ccc(C(C)C)cc2)cc1 [Example 193, (R)-4-acetyl-1-(4-propoxy-benzenesulfonyl)-piperazine-2-carboxylic acid 4-isopropyl-benzylamide]",100 to 1000,100 to 1000,–,–
